Data as given in PMC10066322 (Scientific Reports, 2023).

What was measured:
PARN1-430 = target: T1, PARN1-430 (Homo sapiens, UniProt O95453); test: Inhibition fluorescence assay (FAM-RNA / BHQ quencher deadenylase assay); format: biochemical
T1 construct: expression of the C-terminal truncated protein (1-430 aa of PARN) was soluble; His tag (from the pCold I vector); made in house; host or cells: E. coli Rosetta 2 DE
T1 sequence (O95453 1-430): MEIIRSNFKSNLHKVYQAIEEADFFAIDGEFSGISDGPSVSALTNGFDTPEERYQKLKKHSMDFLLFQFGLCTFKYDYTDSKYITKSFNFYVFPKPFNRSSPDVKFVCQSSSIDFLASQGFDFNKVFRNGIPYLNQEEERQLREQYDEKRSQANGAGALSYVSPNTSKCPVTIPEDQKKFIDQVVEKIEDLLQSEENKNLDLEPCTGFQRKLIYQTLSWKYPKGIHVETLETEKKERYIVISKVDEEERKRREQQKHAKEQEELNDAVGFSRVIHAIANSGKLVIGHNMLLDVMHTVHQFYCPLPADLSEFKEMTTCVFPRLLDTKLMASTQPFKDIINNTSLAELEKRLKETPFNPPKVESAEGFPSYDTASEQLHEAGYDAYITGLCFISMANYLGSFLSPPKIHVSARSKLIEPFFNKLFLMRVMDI
Description: To easily screen compounds for inhibition of PARN activity, we developed an assay in which fluorescence was used as the readout for monitoring PARN1-430’s activity (Fig. 3a). This assay was modeled on a similar assay developed for Caf1/CNOT7 deadenylase. In this assay, PARN1-430 was incubated with a 5′-fluorescently labeled oligoadenylated RNA. In the absence of deadenylation, this substrate RNA can effectively hybridize to a complementary DNA oligonucleotide with a quencher on its 3′ end leading to a loss of fluorescence (Fig. 3a). When the RNA substrate is deadenylated, the quenching oligonucleotide is no longer able to stably hybridize leading to an increase in fluorescence in the reaction.
Figure 3 Developing a fluorescence assay for PARN inhibition. (a) Cartoon depicting the inhibition fluorescence assay. Schematic diagram of the fluorescence-based deadenylase assay. The assay is based on a 5′ FAM-labelled RNA oligonucleotide substrate. After incubation of the substrate in the presence of PARN1-430, the reaction is stopped and a 3′ BHQ-labelled DNA oligonucleotide probe complementary to the RNA substrate is added. The fluorescence of intact substrate is quenched upon probe hybridization because of the proximity of the BHQ […]. In contrast, the BHQ-labelled probe cannot hybridize to the FAM-labelled reaction product allowing detection of FAM fluorescence. […] 2-way ANOVA, multiple comparisons test, average ± SD, n = 3 replicates. *P < 0.05, **P < 0.005, ***P < 0.001, ****P < 0.0001, n.s. was not indicated. […] Dotted-line represents RNA and RNA + Quencher data. One-way ANOVA, multiple comparisons test, average ± SD, n ≥ 3 replicates. *P < 0.05, **P < 0.005, ***P < 0.001, ****P < 0.0001, n.s. was not indicated. (d) PARN1-430 and PARNmut enzymatic activity measured at different time points. […] Dotted-line represents RNA and RNA + Quencher data. 2-way ANOVA, multiple comparisons test, average ± SD, n = 3 replicates. *P < 0.05, **P < 0.005, ***P < 0.001, ****P < 0.0001, n.s. was not indicated.
Quenched reaction was incubated at room temperature for 10–60 min and fluorescence was measured using Fluorescein wavelength measurement.

[1] = system: PARN activity in Hela cells; test: miR-21-5p levels in Hela cells by northern blotting (PARN inhibition in cells); format: cell-based, human; conditions: 2 days
Description: 48 h after transfection/drug treatment, cells were collected for either RNA or protein analysis.
Total RNA was extracted from cell lysates using TriZol as per manufacturer’s protocol and DNAse treated. After quantification on Nanodrop, total RNA was separated on an acrylamide 7 M Urea gel. RNA was transferred to a nylon membrane (Nytran SPC, GE Healthcare) using semiwet transfer. After UV/EDC crosslinking, the blot was pre-hybridized and hybridized in PerfectHyb Plus Hybridization Buffer (Sigma Aldrich) at 42 °C. Northern probes have been previously described[11],[48]. After hybridization and washing in 2 × SSC 0.1% SDS wash buffer, blots were exposed to a cassette and imaged on a Typhoon FLA 9500 Phosphoimager. Band intensities were quantified using ImageJ and normalized to the U1 levels under each condition.

[2] = target: GCK (germinal center kinase); conditions: cited from earlier work

IC50 (PARN1-430; GNF-7 on PARN1-430, 10 min pre-treatment, non-linear fit): 35 ± 15 µM | inhibitory effect on PARN1-430, fluorescence assay (PARN1-430; among 15 docking compounds tested): strongest inhibitory effect | PARN inhibitor in vitro (PARN1-430; computational docking compounds, fluorescence assay and gels, PARN1-430 pretreated with drug 10 min): Yes
SMILES: Cc1ccc(Nc2ncc3c(n2)N(C)C(=O)N(c2cc(NC(=O)c4cccc(C(F)(F)F)c4)ccc2C)C3)cn1 [GNF-7]
PARN inhibitor in cells ([1]; 50 μM): Yes | miR-21-5p levels compared to the controls ([1]; 50 µM, northern blotting, DMSO control): ~ 35% | IC50 [2]: 0.008 µM
